Key:
Hamster-Tracheen-Gewebe = assay: Reversal of keratinisation induced by vitamin A deficiency in hamster tracheal tissue (organ culture; methods of Clamon et al. 1974, Sporn et al. 1975); type: cell-based; conditions: keratinisation induced by vitamin A hypovitaminosis; for minimal effective concentration: Mesocricetus auratus, read-out: Konzentration, in der die Keratinisierung von Hamster-Tracheen-Gewebe rückgängig gemacht / geheilt wird (wirksam)
Text: (§1) Nachteilig an diesen bekannten Retinsäureamiden ist ihre geringe therapeutische Breite. Die Substanzen zeigen entweder eine vergleichsweise geringe Aktivität oder wie wirken schon in vergleichsweise geringen Dosen toxisch. So kann beispielsweise Retinsäure-N-etylamid schon in 2 x 10-^9 molaren Konzentrationen die durch Vitamin A-Hypovitaminose induzierte Keratinisierung von Hamster-Tracheen--Gewebe wieder rückgängig machen. Die Methodik hierzu kann G.H. Clamon et al Nature 250; 64-66 (1974) oder M.B. Sporn et al Nature 253, 47-50 (1975)) entnommen werden. Die Keratinisierung wird als praekanzerotischer Prozeß angesehen. Das Retinsäure-N-ethylamid wirkt bereits in einer Konzentration von 9 x 10-^7 molar toxisch auf Tracheenknorpelgewebe vom Hamster in Kultur, wie von M.B. Sporn et al in Nature 263, 110-113 (1976) beschrieben ist.
Bei der Prophylaxe von Praekanzerosen an keratinisiertem Hamster-Tracheen-Gewebe ist die freie Säure jedoch noch in 10^-10 molarer Konzentration wirksam und damit wesentlich aktiver als der Ethylester.

[1] = tested on: Tracheenknorpelgewebe vom Hamster; assay: Toxicity on hamster tracheal cartilage tissue in culture (Sporn et al. 1976); type: cell-based; conditions: result in words; test not named, presumably the tracheal cartilage culture
Text: as §1

SMILES | Konzentration, in der die Keratinisierung von Hamster-Tracheen-Gewebe rückgängig gemacht / geheilt wird (wirksam) (Hamster-Tracheen-Gewebe) | minimal effective concentration (Hamster-Tracheen-Gewebe) [µM] | celluläre Toxizität [1]
CC1=C(/C=C/C(C)=C/C=C/C(C)=C\C(=O)Nc2cccc(C(=O)O)c2)C(C)(C)CCC1 [13-Z-Retinsäure-N-(m-carboxy)-phenylamid] | Entsprechende Resultate |  | 
CC1=C(/C=C/C(C)=C/C=C/C(C)=C\C(=O)Nc2ccccc2C(=O)O)C(C)(C)CCC1 [13-Z-Retinsäure-N-(o-carboxy)-phenylamid] | Entsprechende Resultate |  | 
CC1=C(/C=C/C(C)=C/C=C/C(C)=C\C(=O)Nc2ccc(C(=O)O)cc2)C(C)(C)CCC1 [13-Z-Retinsäure-N-(p-carboxy)-phenylamid] | Entsprechende Resultate |  | 
CCOC(=O)c1ccc(NC(=O)/C=C(C)/C=C/C=C(C)/C=C/C2=C(C)CCCC2(C)C)cc1 [Retinsäure-N-(p-ethoxycarbonyl)-phenylamid, reference compound] |  | 0.01 | geringe celluläre Toxizität
CCNC(=O)/C=C(C)/C=C/C=C(C)/C=C/C1=C(C)CCCC1(C)C [Retinsäure-N-ethylamid, reference compound] |  | 0.002 | 
CC1=C(C#C/C(C)=C/C=C/C(C)=C/C(=O)Nc2cccc(C(=O)O)c2)C(C)(C)CCC1 [all-E-7,8-Dehydro-retinsäure-N-(m-carboxy)-phenylamid] | Entsprechende Resultate |  | 
CC1=C(C#C/C(C)=C/C=C/C(C)=C/C(=O)Nc2ccccc2C(=O)O)C(C)(C)CCC1 [all-E-7,8-Dehydro-retinsäure-N-(o-carboxy)-phenylamid] | Entsprechende Resultate |  | 
CC1=C(C#C/C(C)=C/C=C/C(C)=C/C(=O)Nc2ccc(C(=O)O)cc2)C(C)(C)CCC1 [all-E-7,8-Dehydro-retinsäure-N-(p-carboxy)-phenylamid] | Entsprechende Resultate |  | 
CC1=C(/C=C/C(C)=C/C=C/C(C)=C/C(=O)Nc2cccc(C(=O)O)c2)C(C)(C)CCC1 [all-E-Retinsäure-N-(m-carboxy)-phenylamid] | Entsprechende Resultate |  | 
CC1=C(/C=C/C(C)=C/C=C/C(C)=C/C(=O)Nc2ccccc2C(=O)O)C(C)(C)CCC1 [all-E-Retinsäure-N-(o-carboxy)-phenylamid] | Entsprechende Resultate |  | 
CC1=C(/C=C/C(C)=C/C=C/C(C)=C/C(=O)Nc2ccc(C(=O)O)cc2)C(C)(C)CCC1 [all-E-Retinsäure-N-(p-carboxy)-phenylamid] |  | 0.0001 | ebenso geringe Toxizität wie der entsprechende Ethylester
